Laboratory results: ChEMBL document CHEMBL2034882, “Synthesis, biological evaluation and molecular docking studies of novel 2-(1,3,4-oxadiazol-2-ylthio)-1-phenylethanone derivatives” (Bioorg Med Chem, 2012)

Legend:
MCF7 = test: Cytotoxicity against human MCF7 cells after 24 hrs using Annexin VeFITC/propidium iodide staining by MTT assay; type: functional, cell-based; details: MCF7, 24 h
A-431 [1] = test: Cytotoxicity against human A431 cells after 24 hrs […] by MTT assay; type: functional, cell-based; details: A-431, 24 h
[2] = Inhibition of bovine brain FAK after 20 mins by turbidimetry; set-up: species or system Bos taurus
A-431 [3] = test: Induction of apoptosis in human A431 cells assessed as late apoptotic cells at 5 nM after 24 hrs using Annexin VeFITC/propidium iodide staining by flow cytometry; type: functional
A-431 [4] = test: Induction of apoptosis in human A431 cells assessed as early apoptotic cells at 5 nM after 24 hrs using Annexin VeFITC/propidium iodide staining by flow cytometry; type: functional
A-431 [5] = test: Induction of apoptosis in human A431 cells assessed as necrotic cells at 5 nM after 24 hrs using Annexin VeFITC/propidium iodide staining by flow cytometry; type: functional
A-431 [6] = test: Induction of apoptosis in human A431 cells assessed as early apoptotic cells at 10 nM after 24 hrs using Annexin VeFITC/propidium iodide staining by flow cytometry; type: functional
A-431 [7] = test: Induction of apoptosis in human A431 cells assessed as late apoptotic cells at 10 nM after 24 hrs using Annexin VeFITC/propidium iodide staining by flow cytometry; type: functional
A-431 [8] = test: Induction of apoptosis in human A431 cells assessed as necrotic cells at 10 nM after 24 hrs using Annexin VeFITC/propidium iodide staining by flow cytometry; type: functional
A-431 [9] = test: Induction of apoptosis in human A431 cells assessed as early apoptotic cells at 20 nM after 24 hrs using Annexin VeFITC/propidium iodide staining by flow cytometry; type: functional
A-431 [10] = test: Induction of apoptosis in human A431 cells assessed as late apoptotic cells at 20 nM after 24 hrs using Annexin VeFITC/propidium iodide staining by flow cytometry; type: functional
A-431 [11] = test: Induction of apoptosis in human A431 cells assessed as necrotic cells at 20 nM after 24 hrs using Annexin VeFITC/propidium iodide staining by flow cytometry; type: functional
A-431 [12] = test: Induction of apoptosis in human A431 cells assessed as early apoptotic cells at 40 nM after 24 hrs using Annexin VeFITC/propidium iodide staining by flow cytometry; type: functional
A-431 [13] = test: Induction of apoptosis in human A431 cells assessed as late apoptotic cells at 40 nM after 24 hrs using Annexin VeFITC/propidium iodide staining by flow cytometry; type: functional
A-431 [14] = test: Induction of apoptosis in human A431 cells assessed as necrotic cells at 40 nM after 24 hrs using Annexin VeFITC/propidium iodide staining by flow cytometry; type: functional
A-431 [15] = test: Induction of apoptosis in human A431 cells assessed as viable cells at 5 nM after 24 hrs using Annexin VeFITC/propidium iodide staining by flow cytometry; type: functional; details: A-431, 24 h, read-out: Activity
A-431 [16] = test: Induction of apoptosis in human A431 cells assessed as viable cells at 10 nM after 24 hrs using Annexin VeFITC/propidium iodide staining by flow cytometry; type: functional; details: A-431, 24 h, read-out: Activity
A-431 [17] = test: Induction of apoptosis in human A431 cells assessed as viable cells at 20 nM after 24 hrs using Annexin VeFITC/propidium iodide staining by flow cytometry; type: functional; details: A-431, 24 h, read-out: Activity
A-431 [18] = test: Induction of apoptosis in human A431 cells assessed as viable cells at 40 nM after 24 hrs using Annexin VeFITC/propidium iodide staining by flow cytometry; type: functional; details: A-431, 24 h, read-out: Activity
A-431 [19] = test: Induction of apoptosis in human A431 cells after 24 hrs using Annexin VeFITC/propidium iodide staining by flow cytometry; type: functional, cell-based

Row | SMILES | IC50 (MCF7) [nM] | IC50 (A-431 [1]) [nM] | IC50 [2] [nM] | other results
1 | CCOc1ccccc1-c1nnc(SCC(=O)c2ccccc2)o1 | 2670 | 650 | 59800 | –
2 | CC(C)(C)c1ccc(-c2nnc(SCC(=O)c3ccc(Br)cc3)o2)cc1 | 1950 | 100 | 9800 | –
3 | CN(C)c1ccc(-c2nnc(SCC(=O)c3ccccc3)o2)cc1 | 210 | 160 | 17500 | –
4 | O=C(CSc1nnc(-c2ccnc(Cl)c2)o1)c1ccc(Br)cc1 | 270 | 50 | 970 | –
5 | O=C(CSc1nnc(-c2ccccc2F)o1)c1ccc(Br)cc1 | 240 | 200 | 19800 | –
6 | O=C(CSc1nnc(-c2ccnc(Cl)c2)o1)c1ccccc1 | 1290 | 3200 | 302000 | –
7 | COc1cc(OC)cc(-c2nnc(SCC(=O)c3ccccc3)o2)c1 | 170 | 40 | 650 | –
8 | CN[C@@H]1C[C@H]2O[C@@](C)([C@@H]1OC)n1c3ccccc3c3c4c(c5c6ccccc6n2c5c31)C(=O)NC4 [STAUROSPORINE] | – | 70 | – | –
9 | COc1cc(OC)cc(-c2nnc(SCC(=O)c3ccc(Br)cc3)o2)c1 | 270 | 60 | 1080 | –
10 | O=C(CSc1nnc(-c2cccc3ccccc23)o1)c1ccc(Br)cc1 | 260 | 160 | 17900 | –
11 | O=C(CSc1nnc(-c2cccc3ccccc23)o1)c1ccccc1 | 230 | 130 | 5800 | –
12 | O=C(CSc1nnc(-c2ccccc2F)o1)c1ccccc1 | 260 | 50 | 1220 | –
13 | CCOc1ccccc1-c1nnc(SCC(=O)c2ccc(Br)cc2)o1 | 460 | 360 | 40500 | –
14 | O=C(CSc1nnc(-c2ccncc2)o1)c1ccccc1 | 370 | 1000 | 98700 | –
15 | COc1ccccc1-c1nnc(SCC(=O)c2ccc(Br)cc2)o1 | 600 | 80 | 1350 | –
16 | Cc1ccc(-c2nnc(SCC(=O)c3ccc(Br)cc3)o2)c(O)c1 | 2070 | 50 | 2670 | –
17 | Cc1ccc(-c2nnc(SCC(=O)c3ccccc3)o2)c(O)c1 | 150 | 60 | 760 | –
18 | O=C(CSc1nnc(-c2ccncc2)o1)c1ccc(Br)cc1 | 4230 | 780 | 76300 | –
19 | COc1ccc(-c2nnc(SCC(=O)c3ccccc3)o2)c(O)c1 | 280 | 180 | 20500 | –
20 | CN(C)c1ccc(-c2nnc(SCC(=O)c3ccc(Br)cc3)o2)cc1 | 550 | 200 | 21500 | –
21 | COc1ccccc1-c1nnc(SCC(=O)c2ccccc2)o1 | 2070 | 20 | 580 | –
22 | Nc1cc(-c2nnc(SCC(=O)c3ccc(Br)cc3)o2)ccn1 | 200 | 60 | 1150 | –
23 | Nc1cc(-c2nnc(SCC(=O)c3ccccc3)o2)ccn1 | 140 | 10 | 20 | Activity (A-431 [3]): 9.47%; Activity (A-431 [4]): 16.77%; Activity (A-431 [5]): 8%; Activity (A-431 [6]): 17.47%; Activity (A-431 [7]): 12.23%; Activity (A-431 [8]): 9%; Activity (A-431 [9]): 28.92%; Activity (A-431 [10]): 15.26%; Activity (A-431 [11]): 6%; Activity (A-431 [12]): 43.51%; Activity (A-431 [13]): 16.65%; Activity (A-431 [14]): 6%; viability at 0.005 µM (A-431 [15]): 65.8%; viability at 0.01 µM (A-431 [16]): 61.3%; viability at 0.02 µM (A-431 [17]): 49.8%; viability at 0.04 µM (A-431 [18]): 33.8%; Activity (A-431 [19]): Dose-dependent effect
24 | CC(C)(C)c1ccc(-c2nnc(SCC(=O)c3ccccc3)o2)cc1 | 50 | 170 | 18600 | –
25 | COc1ccc(-c2nnc(SCC(=O)c3ccc(Br)cc3)o2)c(O)c1 | 260 | 330 | 35400 | –
